Experimental data from patent US20260159519A1, “IMIDAZOPYRIDAZINE SUBSTITUTED BENZENE RING DERIVATIVE, PREPARATION METHOD, PHARMACEUTICAL COMPOSITION AND USE” (SHANGHAI SIMR BIOTECHNOLOGY CO., LTD., priority 2022, published 2026).

Columns and labels:
[1] = target: T1, human α1-GABAA receptor (α1-GABAAR-HEK293 cells) (Homo sapiens, UniProt P14867+P18507); assay: Whole-cell patch-clamp electrophysiology, positive allosteric modulatory activity on α1-GABAA receptor; format: cell-based; details: read-out: α1-GABAA positive allosteric modulatory activity
T1 construct: expressed in transfected cells
Text: (§1) α subunit, β subunit, and γ subunit are essential for the formation of a complete and functional GABAA receptor. In this example of the present disclosure, HEK293 cells stably expressing the human α1-GABAA receptor (α1-GABAAR) and α2-GABAA receptor (α2-GABAAR) were constructed and separately selected using the lipofection method (Felgner, P. L., et al. Proceedings of the National Academy of Sciences, 1987, 84: 7413-7417). The α1-GABAAR-HEK293 cell model simultaneously expressed the α1 subunit (for protein sequence, see GenBank accession No.: NM_000806.5), the […] (for protein sequence, see GenBank accession No.: NM_000814.5), and the […] (for protein sequence, see GenBank accession No.: NM_000816.3). The α2-GABAAR-HEK293 cell model simultaneously expressed the α2 subunit (for protein sequence, see GenBank accession No.: NM_000807.4), the β3 subunit (for protein sequence, see GenBank accession No.: NM_000814.5), and the γ2 subunit (for protein sequence, see GenBank accession No.: NM_000816.3).
(§2) The above cell lines were subcultured. The α2-GABAAR-HEK293 cells were expanded for testing the affinity of compounds to the benzodiazepine (BZD) site of the GABAA receptor. During the passage process, some of the α1-GABAAR-HEK293 cells and α2-GABAAR-HEK293 cells were suspended and plated on a slide pre-treated with Poly-D-Lysine for electrophysiological testing (method referenced from patent CN107344936A, paragraph 0586).
(§3) The positive regulatory activity of the test drugs on the α1-GABAA receptor and the α2-GABAA receptor was detected by the electrophysiological method. The specific method was as follows:
(§4) Compound concentration setting: The final concentration of the compounds used for screening was 100 nM. For cell lines expressing the α1-GABAA receptor, the concentration of GABA was 0.05 to 0.07 μM (approximately EC2-4). For cell lines expressing the α2-GABAA receptor, the concentration of GABA was 0.10 to 0.11 μM (approximately EC7-8). Electrophysiological testing was performed using the whole-cell patch-clamp technique, which can refer to the method reported in the literature (Nickolls, S. A., et al. British Journal of Pharmacology, 2018, 175: 708-725). The composition of the extracellular solution (ECS) for electrophysiology was as follows: 150 mM NaCl, 5 mM KCl, 2.5 mM CaCl2, 1 mM MgCl2, 10 mM HEPES, and 10 mM glucose (pH 7.4). The formulation of the intracellular solution (ICS) for electrophysiology was as follows: 140 mM CsCl, 11 mM EGTA, 10 mM HEPES, 2 mM CaCl2, 1 mM MgCl2, 4 mM MgATP, and 2 mM TEA (pH 7.3). GABA (γ-aminobutyric acid) powder was prepared into a mother liquor with pure water, which was then diluted in ECS. The compound was first prepared into a 4 mM mother liquor with dimethyl sulfoxide, which was then gradually diluted in the corresponding concentration of GABA-ECS. The solutions were freshly prepared prior to electrophysiological testing.
(§5) Electrophysiological signal acquisition was performed using an EPC 10 amplifier and PatchMaster software (HEKA) or an Axon 700B amplifier and Clampex software (AXON). The recording electrode was made through a drawing process using borosilicate glass, with an electrode resistance of 4 to 6 MΩ. Extracellular administration was performed using the ALA-VC-8PG™ system. A single, independently growing cell was selected. After the glass electrode formed a good seal with the cell, the membrane was ruptured to form the whole-cell configuration. The cell membrane potential was clamped at −60 mV and recorded in Gap-free mode. During the test, the extracellular solution was first applied extracellularly for approximately 20 seconds. After the baseline (Iprebaseline) stabilized, the extracellular solution was switched to GABA-ECS. At this point, the current induced by GABA (Igaba) could be detected. After approximately 10 to 20 seconds, when the current stabilized, the extracellular solution was switched to a mixture of the compound and GABA-ECS. […]

[2] = target: T2, human α2-GABAA receptor (α2-GABAAR-HEK293 cells) (Homo sapiens, UniProt P18507+P47869); assay: Whole-cell patch-clamp electrophysiology, positive allosteric modulatory activity on α2-GABAA receptor; format: cell-based; details: read-out: α2-GABAA positive allosteric modulatory activity
T2 construct: expressed in transfected cells
Text: as §1, §2, §3, §4, §5

[3] = target: T3, human α2-GABAA receptor (BZD site, membrane protein of HEK293 cells) (Homo sapiens, UniProt P18507+P47869); assay: Radioligand competitive binding assay (3H-flunitrazepam) at the BZD site of the α2-GABAA receptor; details: competition with 1 nM 3H-flunitrazepam; Ki calculated from IC50; read-out: α2 Ki
T3 construct: expressed in transfected cells
Text: as §1, §2
The affinity of the compounds for the α2-GABAA receptor was determined by competing for the binding of ^3H-flunitrazepam (isotope ^3H-labelled flunitrazepam) to the BZD site on the membrane protein of HEK293 cells stably expressing the human α2-GABAAR.
Membrane preparation: Cells were suspended in 50 mM Tris-HCl buffer (pH=7.4), homogenized 10 times for 20 seconds with a homogenizer on ice, and centrifuged at 1000 g for 10 minutes at 4° C. The supernatant was taken, and the above steps were repeated. The supernatant was centrifuged at 4° C. (33800 g; Thermo, rotor: A27-8×50) for 60 minutes. The precipitate was resuspended in Tris buffer (50 mM Tris-HCl, 10 mM MgCl2, 0.5 mM EDTA, and 10% glycerol). The protein content was determined (BCA (bicinchoninic acid) protein quantification assay based on copper ion reduction, with a BCA kit purchased from Pierce (Annoron (Beijing) Biotechnology Co., Ltd.)), and 1 mL aliquots were prepared and stored at −80° C.
Radioligand competitive binding assay: This assay was performed in a 200 μL system (96-well plate) containing 100 μL of cell membrane. The concentration of ^3H-flunitrazepam was 1 nM, and the concentrations of the test compounds were in the range of […]. Flumazenil was used as a control. 1 μL of 2 mM flumazenil (final […]) was added to each low signal control (low control, LC) well, and 1 μL of dimethyl sulfoxide was added to each high signal control (high control, HC) well. The final concentration of target membrane protein was […]. All sample stock solutions of test compounds were 10 mM dimethyl sulfoxide solutions. All the samples were diluted to a concentration of 0.2 mM with dimethyl sulfoxide, and then subjected to a 4-fold serial dilution for a total of 8 working concentration gradients. The 96-well plate was sealed with a sealing membrane and then incubated on a shaker at room temperature for 1 hour. Meanwhile, a GF/C filter plate was soaked in plate soaking buffer (0.3% PEI (polyethyleneimine, purchased from Sigma-Aldrich, model: P314), stored at 4° C.) for at least 0.5 hours. After the binding incubation was completed, the cells were harvested onto the GF/C filter plate using a cell harvester and washed four times with plate washing buffer (50 mM Tris-HCl, pH 7.4, stored at 4° C.). After drying in an oven at 50° C. for 1 hour, the dried GF/C filter plate was bottom-sealed. The residual radioactivity on the filter membrane was detected by liquid scintillation counting.

| SMILES | activation at 0.1 µM [1] | activation at 0.1 µM [2] | Ki [3] |
| --- | --- | --- | --- |
| CCn1cnc2c(-c3ccc(F)c(-c4cc5ccnnc5cc4OC)c3)cnnc21 [Example 112, 6-(5-(7-Ethyl-7H-imidazo[4,5-c]pyridazin-4-yl)-2-fluorophenyl)-7-methoxycinnoline] | 64% | 171% | 7.62 nM |
| CCn1cnc2c(-c3ccc(F)c(-c4cc5cn(C6CC6)nc5cc4OC)c3)cnnc21 [Example 114, 4-(3-(2-Cyclopropyl-6-methoxy-2H-indazol-5-yl)-4-fluorophenyl)-7-ethyl-7H-imidazo[4,5-c]pyridazine] | 68% | 107% | 9.97 nM |
| CCn1cnc2c(-c3ccc(F)c(-c4cc5cn(C6CN(C)C6)nc5cc4OC)c3)cnnc21 [Example 117] | 37% | 86% | 15.2 nM |
| CCn1cnc2c(-c3ccc(F)c(-c4cc5ccn(C)c(=O)c5cc4OC)c3)cnnc21 [Example 121, 6-(5-(7-Ethyl-7H-imidazo[4,5-c]pyridazin-4-yl)-2-fluorophenyl)-7-methoxy-2-methylisoquinolin-1(2H)-one] | -6% | 90% | 3.02 nM |
| CCn1cnc2c(-c3ccc(F)c(-c4cc5cn(C6CCOC6)nc5cc4OC)c3)cnnc21 (stereo not drawn) [Example 122, 7-Ethyl-4-(4-fluoro-3-(6-methoxy-2-(tetrahydrofuran-3-yl)-2H-indazol-5-yl)phenyl)-7H-imidazo[4,5-c]pyridazine] | 39% | 125% | 4.76 nM |
| CCn1cnc2c(-c3ccc(F)c(-c4cc5ccncc5cc4OC)c3)cnnc21 [Example 123, 6-(5-(7-Ethyl-7H-imidazo[4,5-c]pyridazin-4-yl)-2-fluorophenyl)-7-methoxyisoquinoline] | 33% | 95% | 7.7 nM |
| CCn1cnc2c(-c3ccc(F)c(-c4cc5cn(C6COC6)nc5cc4OC)c3)cnnc21 [Example 129, 7-Ethyl-4-(4-fluoro-3-(6-methoxy-2-(oxetan-3-yl)-2H-indazol-5-yl)phenyl)-7H-imidazo[4,5-c]pyridazine] | 56% | 128% | 3.23 nM |
| CCn1cnc2c(-c3ccc(F)c(-c4cc5oc(C)nc5cc4OC)c3)cnnc21 [Example 133, 6-(5-(7-Ethyl-7H-imidazo[4,5-c]pyridazin-4-yl)-2-fluorophenyl)-5-methoxy-2-methylbenzo[d]oxazole] | 16% | 130% | 12.7 nM |
| CCn1cnc2c(-c3ccc(F)c(-c4ccc5c(nnn5C5CCOC5)c4COC)c3)cnnc21 (stereo not drawn) [Example 157, 7-Ethyl-4-(4-fluoro-3-(4-(methoxymethyl)-1-(tetrahydrofuran-3-yl)-1H-benzo[d][1,2,3]triazol-5-yl)phenyl)-7H-imidazo[4,5-c]pyridazine] | 50% | 99% | 23.3 nM |

The next lines start with the values.

| activation at 0.1 µM [1] | activation at 0.1 µM [2] | Ki [3] | SMILES |
| --- | --- | --- | --- |
| -25% | 85% | 16.4 nM | CCn1cnc2c(-c3ccc(F)c(-c4ccc5c(ncn5C5COC5)c4OC)c3)cnnc21 [Example 115, 7-Ethyl-4-(4-fluoro-3-(4-methoxy-1-(oxetan-3-yl)-1H-benzo[d]imidazol-5-yl)phenyl)-7H-imidazo[4,5-c]pyridazine] |
| -10% | 86% | 15.4 nM | CCn1cnc2c(OC)c(-c3cc(-c4cnnc5c4ncn5CC)ccc3F)ccc21 [Example 119, 7-Ethyl-4-(3-(1-ethyl-4-methoxy-1H-benzo[d]imidazol-5-yl)-4-fluorophenyl)-7H-imidazo[4,5-c]pyridazine] |
| -35% | 90% | 5.22 nM | CCn1cnc2c(-c3ccc(F)c(-c4ccc5c(ncn5C)c4OC)c3)cnnc21 [Example 126, 7-Ethyl-4-(4-fluoro-3-(4-methoxy-1-methyl-1H-benzo[d]imidazol-5-yl)phenyl)-7H-imidazo[4,5-c]pyridazine] |
| 36% | 139% | 4.8 nM | CCn1cc2cc(-c3cc(-c4cnnc5c4ncn5CC)ccc3F)c(OC)cc2n1 [Example 130, 7-Ethyl-4-(3-(2-ethyl-6-methoxy-2H-indazol-5-yl)-4-fluorophenyl)-7H-imidazo[4,5-c]pyridazine] |
| 35% | 122% | 13.2 nM | CCn1cnc2c(-c3ccc(F)c(-c4cc5cccnc5cc4OC)c3)cnnc21 [Example 139, 6-(5-(7-Ethyl-7H-imidazo[4,5-c]pyridazin-4-yl)-2-fluorophenyl)-7-methoxyquinoline] |
| 37% | 105% | 9.15 nM | CCn1cnc2c(-c3ccc(F)c(-c4cc5cn(C)nc5cc4OC)c3)cnnc21 [Example 141, 7-Ethyl-4-(4-fluoro-3-(6-methoxy-2-methyl-2H-indazol-5-yl)phenyl)-7H-imidazo[4,5-c]pyridazine] |
| 36% | 99% | 4.54 nM | CCn1cnc2c(-c3ccc(F)c(-c4cc5cnn(C)c5cc4OC)c3)cnnc21 [Example 142, 7-Ethyl-4-(4-fluoro-3-(6-methoxy-1-methyl-1H-indazol-5-yl)phenyl)-7H-imidazo[4,5-c]pyridazine] |
